Reference: patent US20170007669A1, “PEPTIDE-MEDIATED DELIVERY OF ACTIVE AGENTS ACROSS THE BLOOD-BRAIN BARRIER” (Mayo Foundation for Medical Education and Research, priority 2015, published 2017)
Where no end group is shown, it is not given here.

Experiments:
[1] = Tissue distribution of Evans Blue (EB) after delivery via K16ApoE; assay type: in vivo, mice; details: tissues 1 h after EB
Experimental: Mice were injected with various amounts of K16ApoE peptide (0 μg, 150 μg, 100 μg, 75 μg, 50 μg, 25 and μg) first. EB (40 μL of a 2% solution was injected 10 min after injection of the peptide. Tissues (brains, lungs, heart, liver, spleen and kidney) were collected 1 h after EB delivery. All injections were through the femoral vein.

[2] = Residence time of EB dye in brain following transportation by the peptide; assay type: in vivo, mice; details: EB 10 min after 300 μg K16ApoE
Experimental: A series of mice were administered 300 μg of K16ApoE followed by administration of ˜40 μL 2% EB 10 min after administration of the peptide. As a control, only EB was injected, cardiac perfusion was done 6 hours after EB injection, followed by collection of brain. For all other mice, perfusion and collection of brains was performed 15 min, 30 min, 1 h, 2 h, 4 h, 6 h, 12, h, and 24 h following administration of EB.

[3] = tested on: blood-brain barrier; assay: Transportation of Evan's Blue (EB) dye across the BBB after IV injection of peptide; assay type: in vivo, mouse; details: for EB dye in brain: EB 10 min later, brain collected 1 h after EB
Experimental: To explore whether K16ApoE (SEQ. ID. NO: 42) compromises integrity of the BBB, the peptide was first injected by IV followed by injection of Evan's Blue (EB; a routinely used small molecule blue dye with a molecular weight of 960.81) by IV into the femoral vein of a mouse. Cardiac perfusion was performed and the brains of the mice were removed and evaluated approximately 2 hours following injection of the dye. As controls, a peptide consisting of 16 lysine residues (K16) and a 20-amino acid peptide comprising the LDLR-binding domain of ApoE (ApoE-FITC; (SEQ ID NO:13)), were used. The particulars of each administration are as follows: • 1) 67.5 nanomoles of K16 injected first, then ˜40 μL 2% EB was injected. • 2) Same as 1 but K16 and EB mixed prior to injection. • 3) 67.5 nanomoles of ApoE-FITC injected first, then ˜40 μL 2% EB was injected. • 4) Same as 3 but ApoE-FITC peptide and EB was mixed prior to injection. • 5) 67.5 nanomoles of K16ApoE injected first, then ˜40 μL 2% EB was injected. • 6) Same as 5 but K16ApoE peptide and EB was mixed first before injection.
Using the method described in Example 1, various amounts of K16ApoE (SEQ. ID. NO: 42) was injected followed by administration of ˜40 μL 2% EB. The particulars of each administration are as follows: • 1) EB alone. • 2) 50 μg (11.25 nanomoles) K16ApoE first, followed by administration of EB. • 3) 100 μg (22.5 nanomoles) K16ApoE first, followed by administration of EB. • 4) 200 μg (45 nanomoles) K16ApoE first, followed by administration of EB. • 5) 300 μg (67.5 nanomoles) K16ApoE first, followed by administration of EB.
˜40 μL of 2% EB was injected 10 min after injection of various amounts of K16ApoE (75 μg, 100 μg, 150 μg, 250 μg, and 300 μg) or K26ApoE (25 μg, 50 μg, 75 μg, 100 μg, 125 μg, and 150 μg). K26ApoE (SEQ ID NO: 139) having the sequence:
Brain tissue as was collected 1 h following EB injection. All injections were at the femoral vein.

Question: What does the source list for `Cc1cc(-c2ccc(/N=N/c3ccc4c(S(=O)(=O)[O-])cc(S(=O)(=O)[O-])c(N)c4c3O)c(C)c2)ccc1/N=N/c1ccc2c(S(=O)(=O)[O-])cc(S(=O)(=O)[O-])c(N)c2c1O.[Na+].[Na+].[Na+].[Na+]` [EB, Evan's Blue]?
Answer: EB stain in organs ([1]; EB injected without K16ApoE): Kidney, spleen, liver and heart show some EB-stain; time post EB administration from which dye is observed in brain [2]: 15 min; time EB is retained well in the brain ([2]; dye remains intense): up to 4 h; time EB is probably retained in the brain (less intense dye) ([2]; longest time point tested): up to 24 h

Question: Which results are given for “KKKKKKKKKKKKKKKKKKKKKKKKKK- LRVRLASHLRKLRKRLLRDA (KKKKKKKKKKKKKKKKKKKKKKKKKKLRVRLASHLRKLRKRLLRDA) [K26ApoE]”?
Answer: EB dye in brain ([3]; 25 μg peptide): no dye was observed; EB dye in brain ([3]; 50 μg peptide): only a small amount of dye present; EB dye in brain ([3]; 75 μg peptide): Increasing EB is observed; effectiveness in delivering EB to the brain relative to K16ApoE ([3]; comparison of peptide amounts needed): approximately two-fold

Question: With “KKKKKKKKKKKKKKKKLRVRLASHLRKLRKRLLRDA [K16ApoE, KKKKKKKKKKKKKKKKLRVRLASHLRKLRKRLLRDA]” as the compound, how does the EB in brain ([1]; 0-150 μg K16ApoE, EB 10 min later) read?
Answer: EB goes into brain only after injection of the peptide

Question: What about the “EB stain in organs” value ([1]; EB injected after K16ApoE injection) of the same compound?
Answer: Kidney, spleen and liver are stained with EB
